Assay results published in patent publication US20080188439A1, “Directed metabolism of compounds by glucuronidation and sulfonation donors to decrease toxicity” (priority 2006, published 2008).

Tests used:
[1] = cited from earlier work
C57B16/J male mice [2] = settings: APAP 4 mMol/kg (600 mg/kg) IP plus 0.2 ml physiological saline; three of eight animals
[3] = cited from earlier work; remark: listed apart in the source
C57B16/J male mice [4] = assay: Dose-response of APAP toxicity (LD60) in mice; format: in vivo
Experimental: In prior experiments in the laboratory, the LD60, of APAP was determined to be about 600 mgs/kg. The molecular weight of APAP is 151; therefore, the LD60, was about 4 mMol/Kg.

[5] = tested on: UDP-glucose dehydrogenase; settings: UDP-glucose dehydrogenase reaction; cited from earlier work

## CC(=O)Nc1ccc(O)cc1 [APAP, N-acetyl-p-aminophenol]
[1]; 112 patients, overdose
  median half-life after an overdose: 5.4 h
[1]; human, oral
  time of maximal blood concentrations after ingestion: 20 to 80 min
[1]; human, single oral dose of 1-3 gms
  experimental half-life (t0.5 β): 1.75 to 2.67 h
[1]; human
  volume of distribution: approximately 0.95 L/Kg
[1]; therapeutic dose
  share of a therapeutic dose biotransformed in the liver: 95%
[1]; toxic dose, first 24 hours
  share of the toxic dose excreted in the first 24 hours: over 90%
C57B16/J male mice [2]
  survival at 24 hours, APAP/saline (control group): 37.5%
[3]; adult, normal (non-saturated) conditions
  share of circulating acetaminophen undergoing Phase II glucuronide conjugation: approximately 55%
[3]; adult
  share of circulating acetaminophen undergoing Phase II sulfonate conjugation: approximately 30%
[3]; normal conditions
  share of circulating acetaminophen undergoing Phase I metabolism by cytochrome P-450 enzymes: Five
C57B16/J male mice [4]; converted with molecular weight 151
  LD60: about 4 mMol/Kg
C57B16/J male mice [4]; prior experiments in the laboratory
  LD60: about 600 mgs/kg

## NC(=O)c1ccc[n+]([C@@H]2O[C@H](COP(=O)([O-])OP(=O)(O)OC[C@H]3O[C@@H](n4cnc5c(N)ncnc54)[C@H](O)[C@@H]3O)[C@@H](O)[C@H]2O)c1 [NAD^+, nicotinamide adenine dinucleotide]
[5]
  Km: 424 µM
